Assay results taken from patent US6737383B1, “Herbicidal oxadiazolidines” (priority 1999, dated 2004).

Columns and labels:
[1] = test system: soybean; assay: Test B pre/postemergence soybean; format: in vivo, Glycine max; conditions: for Soybean plant response rating (0 to 10 scale): 0 is no effect
Method in brief: (§1)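 Test chemicals in a non-phytotoxic solvent mixture with surfactant were sprayed preemergence onto planted seeds and postemergence onto plants 2 to 18 cm tall (1- to 4-leaf stage). After twelve to sixteen days in a greenhouse, injury was visually rated against untreated controls from 0 (no effect) to 10 (complete control).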

[2] = test system: corn; assay: Test B pre/postemergence corn; format: in vivo, Zea mays; conditions: for Corn plant response rating (0 to 10 scale): 0 is no effect
Method in brief: as §1

[3] = test system: surinam grass; assay: Test B pre/postemergence surinam grass; format: in vivo, Brachiaria decumbens; conditions: for B. signalgrass plant response rating (0 to 10 scale): 0 is no effect
Method in brief: as §1

[4] = test system: cocklebur; assay: Test B pre/postemergence cocklebur; format: in vivo, Xanthium strumarium; conditions: for Cocklebur plant response rating (0 to 10 scale): 0 is no effect
Method in brief: as §1

[5] = test system: morningglory; assay: Test B pre/postemergence morningglory; format: in vivo, Ipomoea hederacea; conditions: for Morningglory plant response rating (0 to 10 scale): 0 is no effect
Method in brief: as §1

[6] = test system: crabgrass; assay: Test B pre/postemergence crabgrass; format: in vivo, Digitaria sanguinalis; conditions: for Crabgrass plant response rating (0 to 10 scale): 0 is no effect
Method in brief: as §1

[7] = test system: purple nutsedge; assay: Test B pre/postemergence purple nutsedge; format: in vivo, Cyperus rotundus; conditions: for Nutsedge plant response rating (0 to 10 scale): 0 is no effect
Method in brief: as §1

[8] = test system: giant foxtail; assay: Test B pre/postemergence giant foxtail; format: in vivo, Setaria faberii; conditions: for Giant foxtail plant response rating (0 to 10 scale): 0 is no effect
Method in brief: as §1

[9] = test system: bedstraw; assay: Test B pre/postemergence bedstraw; format: in vivo, Galium aparine; conditions: for Bedstraw plant response rating (0 to 10 scale): 0 is no effect
Method in brief: as §1

[10] = test system: sugar beet; assay: Test B pre/postemergence sugar beet; format: in vivo, Beta vulgaris; conditions: for Sugarbeets plant response rating (0 to 10 scale): 0 is no effect
Method in brief: as §1

[11] = test system: blackgrass; assay: Test B pre/postemergence blackgrass; format: in vivo, Alopecurus myosuroides; conditions: for Blackgrass plant response rating (0 to 10 scale): 0 is no effect
Method in brief: as §1

[12] = test system: pigweed; assay: Test B pre/postemergence pigweed; format: in vivo, Amaranthus retroflexus; conditions: for Redroot pigweed plant response rating (0 to 10 scale): 0 is no effect
Method in brief: as §1

[13] = test system: wild oat; assay: Test B pre/postemergence wild oat; format: in vivo, Avena fatua; conditions: for Wild oats plant response rating (0 to 10 scale): Rate 125 g/ha, 0 is no effect
Method in brief: as §1

[14] = Postemergence, Rate 125 g/ha, scale of 0 to 10 where 0 is no effect and 10 is complete control
[15] = Preemergence, Rate 62 g/ha, scale of 0 to 10 where 0 is no effect and 10 is complete control
[16] = Preemergence, Rate 125 g/ha, 10 is complete control
[17] = Preemergence, Rate 250 g/ha, scale 0 to 10, 0 is no effect, 10 is complete control
[18] = Preemergence, Rate 500 g/ha, scale 0 to 10 (0 no effect, 10 complete control)
[19] = Rate 62 g/ha, Postemergence, scale of 0 to 10 where 0 is no effect and 10 is complete control
[20] = Rate 250 g/ha, Postemergence, scale 0 to 10, 0 is no effect, 10 is complete control
[21] = Rate 500 g/ha, Postemergence, scale 0 to 10
[22] = Rate 500 g/ha, Postemergence, scale 0 to 10, 0 no effect, 10 complete control
[23] = Preemergence, 10 is complete control

CC1CCCCC1n1c(=O)on(C(=O)N(c2ccccc2)C(C)C)c1=O (centres unmarked) [Compound 162]
Soybean plant response rating [1, 14]: 4 | Soybean plant response rating [1, 15]: 0 | Soybean plant response rating (0 to 10 scale) [1, 16]: 0 | Soybean plant response rating [1, 17]: 0 | Soybean plant response rating [1, 18]: 0 | Soybean plant response rating [1, 19]: 3 | Plant response rating, Soybean [1, 20]: 4 | Soybean plant response rating [1, 21]: 4 | Corn plant response rating [2, 14]: 0 | Corn plant response rating [2, 15]: 0 | Corn plant response rating (0 to 10 scale) [2, 16]: 0 | Corn plant response rating [2, 17]: 0 | Corn plant response rating [2, 18]: 0 | Corn plant response rating [2, 19]: 0 | Plant response rating, Corn [2, 20]: 0 | Corn plant response rating [2, 21]: 0 | B. signalgrass plant response rating [3, 14]: 0 | B. signalgrass plant response rating [3, 15]: 0 | B. signalgrass plant response rating (0 to 10 scale) [3, 16]: 2 | B. signalgrass plant response rating [3, 17]: 3 | B. signalgrass plant response rating [3, 18]: 7 | B. signalgrass plant response rating [3, 19]: 0 | Plant response rating, B. signalgrass [3, 20]: 0 | B. signalgrass plant response rating [3, 22]: 4 | Cocklebur plant response rating [4, 14]: 0 | Cocklebur plant response rating [4, 15]: 0 | Cocklebur plant response rating (0 to 10 scale) [4, 16]: 0 | Cocklebur plant response rating [4, 17]: 0 | Cocklebur plant response rating [4, 18]: 0 | Cocklebur plant response rating [4, 19]: 0 | Plant response rating, Cocklebur [4, 20]: 0 | Cocklebur plant response rating [4, 21]: 2 | Morningglory plant response rating [5, 14]: 6 | Morningglory plant response rating [5, 15]: 0 | Morningglory plant response rating (0 to 10 scale) [5, 16]: 0 | Morningglory plant response rating [5, 17]: 0 | Morningglory plant response rating [5, 18]: 0 | Morningglory plant response rating [5, 19]: 6 | Plant response rating, Morningglory [5, 20]: 10 | Morningglory plant response rating [5, 21]: 10 | Crabgrass plant response rating [6, 14]: 2 | Crabgrass plant response rating [6, 15]: 6 | Crabgrass plant response rating (0 to 10 scale) [6, 16]: 8 | Crabgrass plant response rating [6, 17]: 9 | Crabgrass plant response rating [6, 18]: 10 | Crabgrass plant response rating [6, 19]: 0 | Plant response rating, Crabgrass [6, 20]: 6 | Crabgrass plant response rating [6, 21]: 8 | Nutsedge plant response rating [7, 14]: 0 | Nutsedge plant response rating [7, 15]: 0 | Nutsedge plant response rating (0 to 10 scale) [7, 16]: 0 | Nutsedge plant response rating [7, 17]: 0 | Nutsedge plant response rating [7, 18]: 0 | Nutsedge plant response rating [7, 19]: 0 | Plant response rating, Nutsedge [7, 20]: 0 | Nutsedge plant response rating [7, 21]: 2 | Giant foxtail plant response rating [8, 14]: 2 | Giant foxtail plant response rating [8, 15]: 7 | Giant foxtail plant response rating (0 to 10 scale) [8, 16]: 7 | Giant foxtail plant response rating [8, 17]: 9 | Giant foxtail plant response rating [8, 18]: 9 | Giant foxtail plant response rating [8, 19]: 0 | Plant response rating, Giant foxtail [8, 20]: 2 | Giant foxtail plant response rating [8, 21]: 3 | Bedstraw plant response rating [9, 14]: 2 | Bedstraw plant response rating [9, 15]: 0 | Bedstraw plant response rating (0 to 10 scale) [9, 16]: 0 | Bedstraw plant response rating [9, 17]: 0 | Bedstraw plant response rating [9, 18]: 0 | Bedstraw plant response rating [9, 19]: 0 | Plant response rating, Bedstraw [9, 20]: 3 | Bedstraw plant response rating [9, 21]: 6 | Sugarbeets plant response rating [10, 14]: 0 | Sugarbeets plant response rating [10, 15]: 0 | Sugarbeets plant response rating (0 to 10 scale) [10, 16]: 0 | Sugarbeets plant response rating [10, 17]: 0 | Sugarbeets plant response rating [10, 18]: 0 | Sugarbeets plant response rating [10, 19]: 0 | Plant response rating, Sugarbeets [10, 20]: 0 | Sugarbeets plant response rating [10, 21]: 0 | Blackgrass plant response rating [11, 14]: 0 | Blackgrass plant response rating [11, 15]: 0 | Blackgrass plant response rating (0 to 10 scale) [11, 16]: 2 | Blackgrass plant response rating [11, 17]: 2 | Blackgrass plant response rating [11, 18]: 3 | Blackgrass plant response rating [11, 19]: 0 | Plant response rating, Blackgrass [11, 20]: 0 | Blackgrass plant response rating [11, 21]: 6 | Redroot pigweed plant response rating [12, 14]: 0 | Redroot pigweed plant response rating [12, 15]: 0 | Redroot pigweed plant response rating (0 to 10 scale) [12, 16]: 0 | Redroot pigweed plant response rating [12, 17]: 0 | Redroot pigweed plant response rating [12, 18]: 7 | Redroot pigweed plant response rating [12, 19]: 0 | Plant response rating, Redroot pigweed [12, 20]: 0 | Redroot pigweed plant response rating [12, 21]: 0 | Wild oats plant response rating [13, 15]: 0 | Wild oats plant response rating (0 to 10 scale) [13, 23]: 0 | Wild oats plant response rating [13, 17]: 2 | Wild oats plant response rating [13, 18]: 5 | Plant response rating, Wild oats [13, 20]: 0 | Wild oats plant response rating [13, 21]: 4

CC(C)N(C(=O)n1oc(=O)n([C@@H](C)c2ccccc2)c1=O)c1ccc(F)cc1 [Compound 167]
Soybean plant response rating [1, 14]: 3 | Soybean plant response rating [1, 15]: 0 | Soybean plant response rating (0 to 10 scale) [1, 16]: 0 | Soybean plant response rating [1, 17]: 0 | Soybean plant response rating [1, 18]: 0 | Soybean plant response rating [1, 19]: 2 | Plant response rating, Soybean [1, 20]: 3 | Soybean plant response rating [1, 21]: 5 | Corn plant response rating [2, 14]: 0 | Corn plant response rating [2, 15]: 0 | Corn plant response rating (0 to 10 scale) [2, 16]: 0 | Corn plant response rating [2, 17]: 0 | Corn plant response rating [2, 18]: 0 | Corn plant response rating [2, 19]: 0 | Plant response rating, Corn [2, 20]: 0 | Corn plant response rating [2, 21]: 0 | B. signalgrass plant response rating [3, 14]: 0 | B. signalgrass plant response rating [3, 15]: 2 | B. signalgrass plant response rating (0 to 10 scale) [3, 16]: 5 | B. signalgrass plant response rating [3, 17]: 5 | B. signalgrass plant response rating [3, 18]: 8 | B. signalgrass plant response rating [3, 19]: 0 | Plant response rating, B. signalgrass [3, 20]: 0 | B. signalgrass plant response rating [3, 22]: 0 | Cocklebur plant response rating [4, 14]: 0 | Cocklebur plant response rating [4, 15]: 0 | Cocklebur plant response rating (0 to 10 scale) [4, 16]: 0 | Cocklebur plant response rating [4, 17]: 0 | Cocklebur plant response rating [4, 18]: 0 | Cocklebur plant response rating [4, 19]: 0 | Plant response rating, Cocklebur [4, 20]: 0 | Cocklebur plant response rating [4, 21]: 2 | Morningglory plant response rating [5, 14]: 5 | Morningglory plant response rating [5, 15]: 0 | Morningglory plant response rating (0 to 10 scale) [5, 16]: 0 | Morningglory plant response rating [5, 17]: 0 | Morningglory plant response rating [5, 18]: 0 | Morningglory plant response rating [5, 19]: 2 | Plant response rating, Morningglory [5, 20]: 5 | Morningglory plant response rating [5, 21]: 8 | Crabgrass plant response rating [6, 14]: 3 | Crabgrass plant response rating [6, 15]: 7 | Crabgrass plant response rating (0 to 10 scale) [6, 16]: 8 | Crabgrass plant response rating [6, 17]: 10 | Crabgrass plant response rating [6, 18]: 10 | Crabgrass plant response rating [6, 19]: 0 | Plant response rating, Crabgrass [6, 20]: 9 | Crabgrass plant response rating [6, 21]: 9 | Nutsedge plant response rating [7, 14]: 0 | Nutsedge plant response rating [7, 15]: 0 | Nutsedge plant response rating (0 to 10 scale) [7, 16]: 0 | Nutsedge plant response rating [7, 17]: 0 | Nutsedge plant response rating [7, 18]: 0 | Nutsedge plant response rating [7, 19]: 0 | Plant response rating, Nutsedge [7, 20]: 0 | Nutsedge plant response rating [7, 21]: 0 | Giant foxtail plant response rating [8, 14]: 0 | Giant foxtail plant response rating [8, 15]: 8 | Giant foxtail plant response rating (0 to 10 scale) [8, 16]: 9 | Giant foxtail plant response rating [8, 17]: 10 | Giant foxtail plant response rating [8, 18]: 10 | Giant foxtail plant response rating [8, 19]: 0 | Plant response rating, Giant foxtail [8, 20]: 0 | Giant foxtail plant response rating [8, 21]: 0 | Bedstraw plant response rating [9, 14]: 0 | Bedstraw plant response rating [9, 15]: 0 | Bedstraw plant response rating (0 to 10 scale) [9, 16]: 0 | Bedstraw plant response rating [9, 17]: 3 | Bedstraw plant response rating [9, 18]: 5 | Bedstraw plant response rating [9, 19]: 0 | Plant response rating, Bedstraw [9, 20]: 8 | Sugarbeets plant response rating [10, 14]: 0 | Sugarbeets plant response rating [10, 15]: 0 | Sugarbeets plant response rating (0 to 10 scale) [10, 16]: 2 | Sugarbeets plant response rating [10, 17]: 5 | Sugarbeets plant response rating [10, 18]: 5 | Sugarbeets plant response rating [10, 19]: 0 | Plant response rating, Sugarbeets [10, 20]: 0 | Sugarbeets plant response rating [10, 21]: 0 | Blackgrass plant response rating [11, 14]: 0 | Blackgrass plant response rating [11, 15]: 0 | Blackgrass plant response rating (0 to 10 scale) [11, 16]: 0 | Blackgrass plant response rating [11, 17]: 3 | Blackgrass plant response rating [11, 18]: 3 | Blackgrass plant response rating [11, 19]: 0 | Plant response rating, Blackgrass [11, 20]: 5 | Blackgrass plant response rating [11, 21]: 5 | Redroot pigweed plant response rating [12, 14]: 0 | Redroot pigweed plant response rating [12, 15]: 0 | Redroot pigweed plant response rating (0 to 10 scale) [12, 16]: 6 | Redroot pigweed plant response rating [12, 17]: 8 | Redroot pigweed plant response rating [12, 18]: 8 | Redroot pigweed plant response rating [12, 19]: 0 | Plant response rating, Redroot pigweed [12, 20]: 3 | Redroot pigweed plant response rating [12, 21]: 7 | Wild oats plant response rating [13, 15]: 0 | Wild oats plant response rating (0 to 10 scale) [13, 23]: 0 | Wild oats plant response rating [13, 17]: 3 | Wild oats plant response rating [13, 18]: 6 | Plant response rating, Wild oats [13, 20]: 0 | Wild oats plant response rating [13, 21]: 0
